Experimental data taken from patent US20090062255A1, “TUMOR-TARGETING EVALUATION METHODOLOGY AND COMPOUNDS RELATED THERETO” (THALLION PHARMACEUTICALS INC., priority 2007, published 2009).

What was measured:
SRBC = assay: Hemolysis of SRBC; format: cell-based; details: concentration necessary to achieve 50% hemolysis of SRBC
[1] = tested on: MDA-MB-231 (mammary gland adenocarcinoma); assay: In vitro cytotoxic activity (GI50, propidium iodide), MDA-MB-231; format: cell-based, human; details: method (2), 96 hrs
Experimental: (§1) Procedures used for each series of tests are described below.
(§2) Compounds were dissolved at 10 mM in DMSO. […] The following day, propidium iodide was added to one of the two plates and fluorescence measured (Tz). […] Each compound was tested at each concentration and in triplicates. The equivalent cell number was determined after adding propidium iodide by measuring the signal by fluorescence (C for control).

SF268 (CNS) = assay: In vitro cytotoxic activity (GI50, propidium iodide), SF-268; format: cell-based; details: method (2), 96 hrs
Experimental: as §1, §2

[2] = tested on: PC-3 (prostate adenocarcinoma); assay: In vitro cytotoxic activity (GI50, propidium iodide), PC-3; format: cell-based, human; details: method (2)
Experimental: as §1, §2

[3] = tested on: HT-29 (colorectal carcinoma); assay: In vitro cytotoxic activity (GI50, propidium iodide), HT-29; format: cell-based; details: method (2), 96 hrs
Experimental: as §1, §2

[4] = biological target: T1, peripheral benzodiazepine receptor (PBR) (Rattus norvegicus, UniProt P16257); assay: In-house PBR binding assay ([3H]PK11195, rat heart mitochondrial membranes); details: in-house radioligand-binding assay
T1 construct: CBR and PBR were obtained from rat brain and heart membrane-fractions, respectively; from tissue; host or cells: Wistar rat heart membranes

[5] = tested on: prenylation of Ras, RAP1A and HDJ2 (FTase, GGTase I); assay: Protein prenylation immunoblot (FTase and GGTase I activities) in MCF-7 cells; format: cell-based, human; details: MCF7 cells, 3, 10 and 30 μM, 24 h
Experimental: It was first verified if ECO-4601 interferes with Ras processing by monitoring FTase and GGTase I activities by immunoblot analysis. For these experiments, exponentially growing MCF-7 (human breast tumor) cells were seeded in 60 mm cell culture dishes at a density of 2.5×10^6 cells per dish. After an 18 h incubation period, ECO-4601 or lovastatin (Sigma-Aldrich, St. Louis, Mo.) were added at a final concentration of 3, 10 and 30 μM for 24 h. Cells were also treated with the vehicle alone (0.05% DMSO) for the same incubation periods. Treated and control cells were lysed in ice-cold RIPA buffer (50 mM Tris-HCl pH 7.4, 1% Triton X-100, 1% deoxycholate, 0.1% SDS, 150 mM NaCl, and 1 mM EDTA) containing protease inhibitors (Roche, Mannheim, Germany) and phosphatase inhibitors (EMD Biosciences, Calbiochem, San Diego, Calif.) for 20 minutes on ice. After lysis, cell debris was removed by centrifugation at 12000×g for 10 min. […] Bound antibodies were detected using horseradish peroxidase-conjugated secondary antibodies (Jackson ImmunoResearch Laboratories Inc., West Grove, Pa.) for 1 h at room temperature in 0.5% skim milk-TBS, visualized by treating the membranes with enhanced chemiluminescence reagents (Millipore, Mississauga, ON, Canada) and exposing them to BioMax Light Films (Kodak, Mississauga, ON, Canada). […]

SMILES	Hemolysis (ED50 μg/mL) (SRBC) [µg/mL]	further results
CC(=O)NC(C)(CCC=C(C)C)CCCC(C)=CCN1C(=O)c2cccc(O)c2Nc2c(O)cc(O)cc21 (stereo not shown) [Compound 92, 10-(7-acetamido-3,7,11-trimethyldodeca-2,10-dienyl)-4,6,8-trihydroxy-5,10-dihydro-dibenzo[b,e][1,4]diazepin-11-one]	>64	–
CCN1c2c(O)cccc2C(=O)N(CC=C(C)CCCC(C)(CCCC(C)(C)OC)OC)c2cc(O)cc(O)c21 (stereo not shown) [Compound 87, 10-(7,11-dimethoxy-3,7,11-trimethyl-2-dodecenyl)-4,6,8-trihydroxy-5-ethyl-5,10-dihydro-dibenzo[b,e][1,4]diazepin-11-one]	>64	–
CCC(C)N1c2c(O)cccc2C(=O)N(C/C=C(\C)CC/C=C(\C)CCC=C(C)C)c2cc(O)cc(O)c21 (stereo not shown) [Compound 77, 10-Farnesyl-4,6,8-trihydroxy-5-sec-butyl-5,10-dihydro-dibenzo[b,e][1,4]diazepin-11-one]	60.9	–
CC(C)CCCC(C)CCCC(C)CCN1C(=O)c2cccc(O)c2N(C)c2c(O)cc(O)cc21 (stereo not shown) [Compound 78, 10-(3,7,11-trimethyldodecyl)-4,6,8-trihydroxy-5-methyl-5,10-dihydro-dibenzo[b,e][1,4]diazepin-11-one]	9.89	–
CCN1c2c(O)cccc2C(=O)N(CC=C(C)CCC=C(C)CCCC(C)(C)OC)c2cc(O)cc(O)c21 [Compound 85, 10-(11-methoxy-3,7,11-trimethyl-2,6-dodecadienyl)-4,6,8-trihydroxy-5-ethyl-5,10-dihydro-dibenzo[b,e][1,4]diazepin-11-one]	>64	–
COC(C)(CCC=C(C)C)CCC/C(C)=C/CN1C(=O)c2cccc(O)c2Nc2c(O)cc(O)cc21 (stereo not shown) [Compound 83]	12.4	GI50 [1]: 6.71 µM; GI50 (SF268 (CNS)): 9.74 µM; GI50 ([2]; 96 hrs): 13.2 µM; GI50 [3]: 19.6 µM
[2H]C([2H])([2H])N1c2c(O)cccc2C(=O)N(C/C=C(\C)CC/C=C(\C)CCC=C(C)C)c2cc(O)cc(O)c21 [Compound 98, 10-Farnesyl-4,6,8-trihydroxy-5-(trideuteriomethyl)-5,10-dihydro-dibenzo[b,e][1,4]diazepin-11-one]	4.5	–
CCCCCCN1c2c(O)cccc2C(=O)N(C/C=C(\C)CC/C=C(\C)CCC=C(C)C)c2cc(O)cc(O)c21 [Compound 67, 10-farnesyl-4,6,8-trihydroxy-5-n-hexyl-5,10-dihydro-dibenzo[b,e][1,4]diazepin-11-one]	>64	–
CC(C)=CCCC1(C)OC1CC/C(C)=C/CN1C(=O)c2cccc(O)c2Nc2c(O)cc(O)cc21 (stereo not shown) [Compound 17, 10-(3,7,11-trimethyl-6,7-epoxydodeca-2,10-dienyl)-4,6,8-trihydroxy-5,10-dihydro-dibenzo[b,e][1,4]diazepin-11-one]	35.0	–
C/C(=C\CN1C(=O)c2cccc(O)c2Nc2c(O)cc(O)cc21)CC/C=C(\C)CCC1OC1(C)C (stereo not shown) [Compound 18]	>64	GI50 ([2]; Homo sapiens, 96 h): > 30 µM
COC(C)(C)CCCC(C)=CCCC(C)=CCN1C(=O)c2cccc(O)c2Nc2c(O)cc(O)cc21 [Compound 82, 10-(11-methoxy-3,7,11-trimethyl-2,6-dodecadienyl)-4,6,8-trihydroxy-5,10-dihydro-dibenzo[b,e][1,4]diazepin-11-one]	>64	–
COC(C)(CCC=C(C)C)CCC/C(C)=C/CN1C(=O)c2cccc(O)c2N(C)c2c(O)cc(O)cc21 (stereo not shown) [Compound 80, 10-(7-methoxy-3,7,11-trimethyldodeca-2,10-dienyl)-4,6,8-trihydroxy-5-methyl-5,10-dihydro-dibenzo[b,e][1,4]diazepin-11-one]	>64	–
CCCN1c2c(O)cccc2C(=O)N(C/C=C(\C)CC/C=C(\C)CCC=C(C)C)c2cc(O)cc(O)c21 [Compound 63, 10-farnesyl-4,6,8-trihydroxy-5-n-propyl-5,10-dihydro-dibenzo[b,e][1,4]diazepin-11-one]	>64	–
CCCCN1c2c(O)cccc2C(=O)N(C/C=C(\C)CC/C=C(\C)CCC=C(C)C)c2cc(O)cc(O)c21 [Compound 64, 10-farnesyl-4,6,8-trihydroxy-5-n-butyl-5,10-dihydro-dibenzo[b,e][1,4]diazepin-11-one]	>64	–
COC(C)(C)CCCC(C)(CCCC(C)=CCN1C(=O)c2cccc(O)c2Nc2c(O)cc(O)cc21)OC (stereo not shown) [Compound 84, 10-(7,11-dimethoxy-3,7,11-trimethyl-2-dodecenyl)-4,6,8-trihydroxy-5,10-dihydro-dibenzo[b,e][1,4]diazepin-11-one]	>32	–
CC(C)=CCC/C(C)=C/CC/C(C)=C/CN1C(=O)c2cccc(O)c2N(C)c2c1cc(O)c(Br)c2O [Compound 99]	–	IC50 [4]: 10 nM
CC(C)=CCC/C(C)=C/CC/C(C)=C/CN1C(=O)c2cccc(O)c2Nc2c1cc(O)c(Br)c2O [Compound 97, 10-(farnesyl)-7-bromo-4,6,8-trihydroxy-5,10-dihydro-dibenzo[b,e][1,4]diazepin-11-one]	15.1	–
CC[C@H](C)C(=O)O[C@H]1C[C@@H](C)C=C2C=C[C@H](C)[C@H](CC[C@@H]3C[C@@H](O)CC(=O)O3)[C@H]21 [lovostatin, lovastatin, reference compound]	–	effect on protein prenylation (mobility shift of Ras, RAP1A and HDJ2) [5]: expected mobility shift
CC(C)=CCCC(C)(O)CCCC(C)=CCN1C(=O)c2cccc(O)c2Nc2c(O)cc(O)cc21 (stereo not shown) [Compound 89, 10-(7-hydroxy-3,7,11-trimethyldodeca-2,10-dienyl)-4,6,8-trihydroxy-5,10-dihydro-dibenzo[b,e][1,4]diazepin-11-one]	>64	–
CCN1c2c(O)cccc2C(=O)N(C/C=C(\C)CC/C=C(\C)CCC=C(C)C)c2cc(O)cc(O)c21 [Compound 14, 10-farnesyl-4,6,8-trihydroxy-5-ethyl-5,10-dihydro-dibenzo[b,e][1,4]diazepin-11-one]	43.9	–
